# Experimental data from patent US8809270B2, “Method for reducing cardiovascular morbidity and mortality in prediaetic patients and patients with type 2 diabetes” (priority 2003, dated 2014).
# Experiments:
# [1] = after injection; cited from earlier work
# [2] = test system: patients with various levels of fasting hypertriglyceridemia; experiment: Two multicenter placebo-controlled AMARYL registration studies: lipid data; format: in vivo, human; parameters: Triglycerides % reduction from baseline / Non-HDL Cholesterol Total % reduction from baseline: concentration or dose not given beside the values; Triglycerides Baseline / Triglycerides Endpoint: unit not given beside the values
# From the text: There is evidence from the literature that use of sulfonylurea (SU) as initial drug treatment of the type 2 patient with DDL exerts a weaker effect on reduction of hypertriglyceridemia, or on increasing HDL-C, than is seen with insulin, and/or that the effects are less durable. In order to compare the effects of Lantus LANTUS (insulin glargine) on fasting TG and non-HDL-C levels with oral agents from the sulfonylurea class, the glimepiride (Amaryl® AMARYL) database at Aventis was examined.
# [3] = test system: type 2 diabetic patients already treated with other oral antidiabetic drugs; experiment: Study 4014: lipid data, LANTUS versus rosiglitazone; format: in vivo, human; parameters: Triglycerides % reduction from baseline / Triglycerides % reduction from baseline, LANTUS-AVANDIA / Non-HDL Cholesterol Total % reduction from baseline: concentration or dose not given beside the values; Triglycerides Baseline / Triglycerides Endpoint: unit not given beside the values
# [4] = test system: abnormalities of DDL; details: in vivo; cited from earlier work
# [5] = test system: IGT; details: statistically significant; cited from earlier work
# [6] = test system: diabetic patients hospitalized with acute MI; details: IV insulin-glucose infusion in-hospital followed by intensive chronic outpatient insulin, versus standard treatment; cited from earlier work
molecule,measurement,setting,value
NPH insulin: a moderate- to long-acting insulin with a pronounced peak in plasma activity,time of pronounced peak in plasma activity / peak effect after injection,[1],3 to 6 h
"CCC1=C(C)CN(C(=O)NCCc2ccc(S(=O)(=O)NC(=O)N[C@H]3CC[C@H](C)CC3)cc2)C1=O [AMARYL, glimepiride]",HDL Baseline,[2]; TG baseline range 200-500,38
same,HDL Endpoint,[2]; TG baseline range 200-500,39
same,Non-HDL Cholesterol Total % reduction from baseline,[2]; TG baseline range 200-500,3%
same,Non-HDL Cholesterol Total Baseline,[2]; TG baseline range 200-500,197
same,Non-HDL Cholesterol Total Endpoint,[2]; TG baseline range 200-500,191
same,Triglycerides % reduction from baseline,[2]; TG baseline range 200-500,12%
same,Triglycerides Baseline,[2]; TG baseline range 200-500,299
same,Triglycerides Endpoint,[2]; TG baseline range 200-500,265
same,HDL Baseline,[2]; TG baseline range 300-500,36
same,HDL Endpoint,[2]; TG baseline range 300-500,37
same,Non-HDL Cholesterol Total % reduction from baseline,[2]; TG baseline range 300-500,3%
same,Non-HDL Cholesterol Total Baseline,[2]; TG baseline range 300-500,203
same,Non-HDL Cholesterol Total Endpoint,[2]; TG baseline range 300-500,198
same,Triglycerides % reduction from baseline,[2]; TG baseline range 300-500,18%
same,Triglycerides Baseline,[2]; TG baseline range 300-500,390
same,Triglycerides Endpoint,[2]; TG baseline range 300-500,321
same,HDL Baseline,[2]; TG baseline range 300-1000,36
same,HDL Endpoint,[2]; TG baseline range 300-1000,37
same,Non-HDL Cholesterol Total % reduction from baseline,[2]; TG baseline range 300-1000,5%
same,Non-HDL Cholesterol Total Baseline,[2]; TG baseline range 300-1000,209
same,Non-HDL Cholesterol Total Endpoint,[2]; TG baseline range 300-1000,198
same,Triglycerides % reduction from baseline,[2]; TG baseline range 300-1000,23%
same,Triglycerides Baseline,[2]; TG baseline range 300-1000,459
same,Triglycerides Endpoint,[2]; TG baseline range 300-1000,350
same,HDL Baseline,[2]; TG baseline range 500-1000,37
same,HDL Endpoint,[2]; TG baseline range 500-1000,39
same,Non-HDL Cholesterol Total % reduction from baseline,[2]; TG baseline range 500-1000,10%
same,Non-HDL Cholesterol Total Baseline,[2]; TG baseline range 500-1000,224
same,Non-HDL Cholesterol Total Endpoint,[2]; TG baseline range 500-1000,200
same,Triglycerides % reduction from baseline,[2]; TG baseline range 500-1000,33%
same,Triglycerides Baseline,[2]; TG baseline range 500-1000,662
same,Triglycerides Endpoint,[2]; TG baseline range 500-1000,445
same,LDL Baseline,[2]; TG baseline range All,142
same,LDL Endpoint,[2]; TG baseline range All,140
"CN(CCOc1ccc(CC2SC(=O)NC2=O)cc1)c1ccccn1 (stereo not shown) [AVANDIA, rosiglitazone]",HDL Baseline,[3]; TG baseline range 200-500,38
same,HDL Endpoint,[3]; TG baseline range 200-500,40
same,LDL Baseline,[3]; TG baseline range 200-500,99
same,LDL Endpoint,[3]; TG baseline range 200-500,129
same,Non-HDL Cholesterol Total Endpoint,[3]; TG baseline range 200-500,59
same,Triglycerides % reduction from baseline,[3]; TG baseline range 200-500,0.1%
same,Triglycerides Baseline,[3]; TG baseline range 200-500,294
same,Triglycerides Endpoint,[3]; TG baseline range 200-500,291
same,HDL Baseline,[3]; TG baseline range 300-500,38
same,HDL Endpoint,[3]; TG baseline range 300-500,41
same,Non-HDL Cholesterol Total % reduction from baseline,[3]; TG baseline range 300-500,−17%
same,Non-HDL Cholesterol Total Baseline,[3]; TG baseline range 300-500,177
same,Non-HDL Cholesterol Total Endpoint,[3]; TG baseline range 300-500,207
same,Triglycerides % reduction from baseline,[3]; TG baseline range 300-500,9%
same,Triglycerides Baseline,[3]; TG baseline range 300-500,376
same,Triglycerides Endpoint,[3]; TG baseline range 300-500,341
same,HDL Baseline,[3]; TG baseline range 500-1000,39
same,HDL Endpoint,[3]; TG baseline range 500-1000,38
same,Non-HDL Cholesterol Total Baseline,[3]; TG baseline range 500-1000,231
same,Non-HDL Cholesterol Total Endpoint,[3]; TG baseline range 500-1000,261
same,Triglycerides Baseline,[3]; TG baseline range 500-1000,572
same,Triglycerides Endpoint,[3]; TG baseline range 500-1000,649
same,effect on DDL parameters compared with LANTUS,[3]; in vivo,significantly inferior
same,effects on the abnormalities of DDL,[4],almost no effect
CN(C)C(=N)N=C(N)N [Metformin],reduction in the rate of progression to type 2 DM,[5],31%
insulin: IV insulin-glucose infusion followed by intensive chronic outpatient treatment with insulin (DIGAMI study),reduction of all-cause mortality,[6],28%
